From paper PMC9181543, “Lysosomal Exocytosis of Olivacine on the Way to Explain Drug Resistance in Cancer Cells” (International Journal of Molecular Sciences, 2022)

Assays:
LoVo/DX cells [1] = assay: SRB assay (total protein content), LoVo/DX; assay type: cell-based; conditions: Homo sapiens, LoVo/DX cells (doxorubicin-resistant), 48 h incubation
Description: (§1) The anticancer activity of tested compounds was assessed on five human cell lines selected from the panel of tumor cell lines recommended by the National Cancer Institute: A495 (lung carcinoma), CCRF/CEM (acute lymphoblastic leukemia), LoVo and LoVo/DX (two types of colorectal: non-resistant and resistant to doxorubicin), and MCF-7 (breast adenocarcinoma). In addition, the NHDF cell line (normal human dermal fibroblasts) was used to estimate cytotoxicity to noncancer cells. The A549, CCRF/CEM, LoVo, LoVo/DX, and MCF-7 cells were obtained from ECACC, and NHDF cells from LONZA, Belgium. The A549 and MCF-7 cells were grown in EMEM medium, CCRF/CEM cells in RPMI-1640, LoVo and LoVo/DX cells in DMEM/F-12, and NHDF cells in DMEM without phenol red. The cells were seeded in […] in the biological assay, as recommended by the National Cancer Institute. All culture media were supplemented with L-glutamine, penicillin, streptomycin, and 10% fetal bovine serum (FBS). Cells were incubated at 37 °C and 5% CO2. One of the most popular in vitro tests to evaluate the activity of compounds with potential antitumor activity is the SRB assay. The sulforhodamine B dye is used, which binds to the protein at the appropriate pH. The assay allows for assessing cell mass and, indirectly, their proliferation. The advantage of the assay is that it measures cellular protein content and not the activity of any enzymes. The SRB assay was carried out according to the National Cancer Institute procedure. Cells were incubated in a culture medium for 24 h in 96-well plates. After 24 h, the control plate for each cell line was fixed with TCA to evaluate cell culture before treatment with tested compounds. […] Cell cultures were then fixed by adding 50% TCA at 4 °C for 1 h. After removing the supernatant, the plates were washed with water and dried. […] Growth inhibition was calculated following the NCI guidelines and expressed as the GI50 ratio, i.e., the concentration of the compound in which the amount of protein was reduced by half compared with the control.

NHDF cells [2] = assay: MTT assay (mitochondrial activity), NHDF; assay type: cell-based; conditions: Homo sapiens, NHDF normal cells
Description: (§2) The anticancer activity of tested compounds was assessed on five human cell lines selected from the panel of tumor cell lines recommended by the National Cancer Institute: A495 (lung carcinoma), CCRF/CEM (acute lymphoblastic leukemia), LoVo and LoVo/DX (two types of colorectal: non-resistant and resistant to doxorubicin), and MCF-7 (breast adenocarcinoma). In addition, the NHDF cell line (normal human dermal fibroblasts) was used to estimate cytotoxicity to noncancer cells. The A549, CCRF/CEM, LoVo, LoVo/DX, and MCF-7 cells were obtained from ECACC, and NHDF cells from LONZA, Belgium. The A549 and MCF-7 cells were grown in EMEM medium, CCRF/CEM cells in RPMI-1640, LoVo and LoVo/DX cells in DMEM/F-12, and NHDF cells in DMEM without phenol red. The cells were seeded in […] in the biological assay, as recommended by the National Cancer Institute. All culture media were supplemented with L-glutamine, penicillin, streptomycin, and 10% fetal bovine serum (FBS). Cells were incubated at 37 °C and 5% CO2. An assessment of the mitochondrial cell activity after applying tested compounds was carried out using the test MTT assay, recommended in the ISO 10993-5:2009 standard. As in the SRB assay, the cells were exposed to tested compounds after 24 h of initial incubation in 96-well plates. The MTT solution (1 mg/mL) was added to each well, and cells were incubated for 2 h. Finally, the supernatant was removed, and the formazan crystals were dissolved in isopropanol. After 30 min, absorbance at 570 nm in Victor2 microplate reader (PerkinElmer). Cell viability was determined as the IC50 ratio, i.e., the concentration of the compound in which the viability was reduced by half compared with the control.

A549 cells [3] = assay: MTT assay (mitochondrial activity), A549; assay type: cell-based; conditions: Homo sapiens
Description: as §2

CCRF/CEM cells [4] = assay: MTT assay (mitochondrial activity), CCRF/CEM; assay type: cell-based; conditions: Homo sapiens
Description: as §2

NHDF cells [5] = assay: SRB assay (total protein content), NHDF; assay type: cell-based; conditions: Homo sapiens, NHDF normal cells, 48 h incubation
Description: as §1

CCRF/CEM cells [6] = assay: Rate of apoptosis (annexin V/PI, Tali Apoptosis Kit); assay type: cell-based, human; conditions: 24 h incubation, tested 0.2, 0.5 and 1 μM
Description: Apoptosis is a process of programmed cell death. After exposure to tested compounds, the apoptosis rate was measured using Tali Apoptosis Kit (Invitrogen, Thermo Fisher Scientific, Waltham, MA, USA). In the process of apoptosis, phosphatidylserine (PS) is transferred to the outer side of the cell membrane. The assay uses the ability of fluorophore-labeled annexin V to identify apoptotic cells by binding to exposed PS. The CCRF/CEM cells were incubated in RPMI-1640 medium in 24-well plates for 24 h (37 °C, 5% CO2). Then, tested compounds were added at three different concentrations (0.2, 0.5, and 1 μM) and incubated for 24 h. Negative control was the culture of cells not exposed to apoptosis-inducing factors. After incubation with tested compounds, the cells were harvested, centrifuged, and the supernatant removed. Cells were suspended in annexin V binding buffer (ABB), and Alexa Fluor 488 annexin V conjugate was added to each sample. The cells were then incubated for 20 min in the dark at RT, centrifuged, and resuspended in ABB with propidium iodide (PI). After 5 min incubation, the stained samples were transferred to Tali Cellular Analysis Slides and analyzed using an image-based cytometer Arthur (NanoEnTek Inc., Seoul, Korea).

LoVo/DX cells [7] = assay: MTT assay (mitochondrial activity), LoVo/DX; assay type: cell-based; conditions: Homo sapiens, LoVo/DX cells (doxorubicin-resistant)
Description: as §2

A549 cells [8] = assay: SRB assay (total protein content), A549; assay type: cell-based; conditions: Homo sapiens, 48 h incubation
Description: The anticancer activity of tested compounds was assessed on five human cell lines selected from the panel of tumor cell lines recommended by the National Cancer Institute: A495 (lung carcinoma), CCRF/CEM (acute lymphoblastic leukemia), LoVo and LoVo/DX (two types of colorectal: non-resistant and resistant to doxorubicin), and MCF-7 (breast adenocarcinoma). In addition, the NHDF cell line (normal human dermal fibroblasts) was used to estimate cytotoxicity to noncancer cells. The A549, CCRF/CEM, LoVo, LoVo/DX, and MCF-7 cells were obtained from ECACC, and NHDF cells from LONZA, Belgium. The A549 and MCF-7 cells were grown in EMEM medium, CCRF/CEM cells in RPMI-1640, LoVo and LoVo/DX cells in DMEM/F-12, and NHDF cells in DMEM without phenol red. The cells were seeded in […] in the biological assay, as recommended by the National Cancer Institute. All culture media were supplemented with L-glutamine, penicillin, streptomycin, and 10% fetal bovine serum (FBS). Cells were incubated at 37 °C and 5% CO2. One of the most popular in vitro tests to evaluate the activity of compounds with potential antitumor activity is the SRB assay. […] Growth inhibition was calculated following the NCI guidelines and expressed as the GI50 ratio, i.e., the concentration of the compound in which the amount of protein was reduced by half compared with the control.

MCF-7 cells = assay: MTT assay (mitochondrial activity), MCF-7; assay type: cell-based; conditions: Homo sapiens, MCF7
Description: as §2

CCRF/CEM cells [9] = assay: Evaluation of the cell cycle (Tali Cell Cycle Kit); assay type: cell-based, human; conditions: for cell cycle effect: after exposure
Description: It is expected that tested compounds affect cell division processes (intense in cancer). Therefore, the effect of compounds on the cell cycle was assessed by quantifying the content of cellular DNA in CCRF/CEM cells with Tali Cell Cycle Kit (Invitrogen). Cells were prepared by 24 h initial incubation in RPMI-1640 medium followed by the addition of tested compounds for a further 24 h. Subsequently, cells were harvested, centrifuged, washed, dissolved in PBS, and centrifuged again. After removing PBS, the cells were resuspended in Tali Cell Cycle Solution and incubated for 20 min in the dark at RT. Finally, the cells were transferred to the Tali Cellular Analysis Slides and analyzed using an image-based cytometer Arthur (NanoEnTek Inc.).

Row | SMILES | GI50 (LoVo/DX cells [1]) | IC50 (NHDF cells [2]) | IC50 (A549 cells [3]) | IC50 (CCRF/CEM cells [4]) | GI50 (NHDF cells [5]) | concentration at which apoptosis was induced (CCRF/CEM cells [6]) | IC50 (LoVo/DX cells [7]) | GI50 (A549 cells [8]) | IC50 (MCF-7 cells) | cell cycle inhibition at lower concentrations (CCRF/CEM cells [9]; 0.2 µM and 0.5 µM) | cell cycle effect (CCRF/CEM cells [9])
1 | Cc1nccc2c(C)c3[nH]c4ccccc4c3cc12 [Olivacine, 1,5-dimethyl-6H-pyrido[4,3-b]carbazole] | 0.82 ± 0.08 µM | 15.3 ± 1.95 µM | 17.8 ± 7.82 µM | 11 ± 3.3 µM | 14.8 ± 3.77 µM | 1 µM | 26.3 ± 4.64 µM | 0.93 ± 0.06 µM | 18.5 ± 2.41 µM | No cell cycle inhibition | blockade of the cell cycle in the G0/G1 phase
2 | Cc1c2ccncc2c(C)c2c1[nH]c1ccccc12 [Ellipticine] | 0.75 ± 0.22 µM | 8.98 ± 1.44 µM | 12.9 ± 2.36 µM | 5.86 ± 0.51 µM | 4.44 ± 0.74 µM | 1 µM | 15.1 ± 1.73 µM | 0.72 ± 0.06 µM | 4.67 ± 0.53 µM | – | blockade of the cell cycle in the G0/G1 phase
